# Test results taken from US10301304B2, “Selective inhibitor of phosphatidylinositol 3-kinase-gamma” (VERTEX PHARMACEUTICALS INCORPORATED, priority 2013, dated 2019).
# Like-named read-outs stand apart in the source and are kept apart here.
# Legend:
# [1] = target: T1, pregnane-X receptor (PXR) (Homo sapiens, UniProt O75469); test: PXR activation in DPX2 cells; format: in vitro ADME
# T1 construct: expressed in transfected cells; host or cells: DPX2 cells (human hepatoma cell line)
# Method: The potential of Compound 1 to activate the pregnane-X receptor (PXR) was evaluated over a range of six concentrations from 0.1-30 μM in DPX2 cells, a human hepatoma cell line that is stably overexpressed with the human PXR gene and a luciferase reporter gene linked to two promoters in the human CYP3A4 gene. Rifampicin was used as a positive control.
# [2] = Permeability in Caco-2 cell line; format: in vitro ADME; settings: human
# Method: (§1) The permeability of Compound 1 was evaluated using both Caco-2 and MadinDarby canine kidney (MDCK) wild-type cell lines. Cells were exposed to drug in buffer on the apical side (measuring permeability in the A-to-B direction) or basolateral side (measuring permeability in the B-to-A direction) and incubated at 37° C. for one hour. Permeability was high in the A-to-B direction in both the MDCK and Caco-2 cell lines (33 and 18×10^−6 cm/sec, respectively).
# Caco-2 = test: Permeability in Caco-2 cell line; format: in vitro ADME; settings: Caco-2, 5 μM, A > B
# Method: as §1
# [3] = system: MCP-1 stimulated pAkt in THP-1 cells (PI3K-gamma); test: MCP-1 Stimulated pAkt in THP-1 Cells; format: cell-based; settings: Homo sapiens
# Method: Chemokines like MCP-1 bind to their receptors resulting in activation of the PI3K-gamma signaling pathway. PI3K-gamma leads to generation of PIP3 and activation of downstream molecules like PDK-1 and Akt. Akt phosphorylation is a measure of PI3K activity in the cell. In this assay, THP-1 cells (human monocytic cell line) are starved overnight to deplete pAkt levels. Subsequent stimulation with MCP-1 for 3 minutes leads to PI3K-gamma-induced phoshorylation of Akt at the Threonin 308 and Serine 473 sites. Cells were fixed and stained for intracellular phosphoAKT (Ser 473) then analyzed using a BD FACSCalibur™ cytometer resulting in a measure of cellular PI3K-gamma activity.
# [4] = system: whole blood neutrophils and monocytes (PI3K-gamma); test: Whole Blood oxidative burst; format: cell-based; settings: presence of serum, read-out: IC50 Average ± Standard Deviation
# Excerpt: (§2) Neutrophils, monocytes and macrophages are key mediators of innate immunity. They release reactive oxygen species (ROS) as part of the innate immune inflammatory response. ROS production is induced by inflammatory mediators like chemokines, bacterial peptides and complement that recruit the innate immune cells to the site of inflammation. These inflammatory mediators trigger activation of PI3K-gamma and initiate a downstream signaling cascade that leads to the assembly of the complete NADPH oxidase complex at the plasma membrane generating ROS. PI3K-gamma functional activity was measured in whole blood and huffy coat neutrophils and monocytes via the generation of ROS. The cells are stimulated with TNF-alpha for 10 minutes, then with bacterial cell wall-derived chemotactic peptide, fMLP, for 20 minutes, and loaded with a non-fluorescent dye […] (DHR). ROS produced by the cells oxidizes DHR to fluorescent rhodamine causing an increase in fluorescent rhodamine content in the cells. PI3K-gamma functional activity is measured by the ability of neutrophils and monocytes to generate ROS following fMLP stimulation. Leukocytes and whole blood samples were analyzed on a BD FACSCalibur™ to quantitate cells positive for fluorescent rhodamine. Buffy coat cells generate IC50S in the absence of serum and whole blood assay generates IC50S in the presence of serum.
# [5] = system: buffy coat neutrophils and monocytes (PI3K-gamma); test: Isolated Leukocyte oxidative burst; format: cell-based; settings: absence of serum, read-out: IC50 Average ± Standard Deviation
# Excerpt: as §2
# [6] = system: collagen-induced arthritis (CIA); test: therapeutic mouse collagen-induced arthritis (CIA) model; format: in vivo; design: Histopathology Summed Score, Knees / Therapeutic Paw Score AUC / Histopathology Summed Score, Six Joints / Histopathology Summed Score, Paws: scale not given here; settings: for All Paw Score AUC / Histopathology Summed Score, Knees / Histopathology Summed Score, Paws / Histopathology Summed Score, Six Joints / Prophylactic Paw Score AUC / Therapeutic Paw Score AUC: 10 days; for Arthritis scores measured daily, all paws (FIG. 1): *d2-11, vs vehicle
# Method: Compound 1 was tested in the therapeutic mouse collagen-induced arthritis (CIA) model at 2.5 mg/kg BID (5 mg/kg/day), 5 mg/kg BID (10 mg/kg/day) or 10 mg/kg BID (20 mg/kg/day). Fostamatinib, a Syk small molecule inhibitor used as a reference standard, was dosed orally at 30 mg/kg BID (60 mg/kg/day). Compounds were dosed for 10 days in a 12/12-hour BID dosing regimen until the end of the study. Compound 1 was formulated in 0.2% MC, 1% SLS. Dosing volume was 10 mL/kg. Terminal plasma samples were collected at 2, 4 and 12 hours post last dose. All four paws and both knees were collected and processed for histopathology.
# HUVECs = test: HUVEC Proliferation Assay; format: cell-based, human; settings: for IC50: Homo sapiens, HUVEC
# Method: PI3Ks are important signaling molecules downstream of a number of growth factors that regulate cell survival, growth and cell cycle entry. Both PI3K-alpha and PI3K-beta isoforms regulate cell cycle entry; inhibition of either isoform leads to reduced cell growth. HUVECs are primary human umbilical vein endothelial cells which express both the PI3Kα and PI3Kβ isoforms. Inhibition of either or both PI3K-alpha or PI3K-beta isoforms will inhibit the cell growth of HUVECs. Compounds are plated onto HUVECs, cell proliferation/viability is measure 96 hours post compound treatment using cell titer-glo to measure the ATP content of the cells in the well. Lack of or reduced proliferation is a measure of the extent of PI3K-alpha and/or PI3K-beta inhibition.
# T1 sequence (O75469 whole entry): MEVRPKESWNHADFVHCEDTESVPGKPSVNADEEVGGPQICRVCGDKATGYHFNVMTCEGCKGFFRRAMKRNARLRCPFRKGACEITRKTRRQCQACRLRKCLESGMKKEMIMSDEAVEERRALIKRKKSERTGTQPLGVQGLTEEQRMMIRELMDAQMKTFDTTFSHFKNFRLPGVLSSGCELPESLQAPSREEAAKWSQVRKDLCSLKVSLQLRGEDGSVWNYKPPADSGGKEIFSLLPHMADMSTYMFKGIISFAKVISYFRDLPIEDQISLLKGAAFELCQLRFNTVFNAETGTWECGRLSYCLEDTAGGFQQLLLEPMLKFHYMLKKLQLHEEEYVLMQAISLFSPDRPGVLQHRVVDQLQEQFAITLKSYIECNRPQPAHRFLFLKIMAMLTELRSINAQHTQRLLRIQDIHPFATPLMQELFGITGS
compound,measurement,setting,value
"Cc1cc(-c2cncc([C@@H](O)C(F)(F)F)c2)nc2c1C(=O)N(c1cnn(CC(F)F)c1)C2(C)C [Compound 1, (R)-6-(1-(2,2-difluoroethyl)-1H-pyrazol-4-yl)-4,7,7-trimethyl-2-(5-(2,2,2-trifluoro-1-hydroxyethyl)pyridin-3-yl)-6,7-dihydro-5H-pyrrolo[3,4-b]pyridin-5-one]","PXR activation, response relative to positive control","[1]; 0.1-30 μM, Rifampicin positive control",5%
same,EC50,[1]; PXR activation,> 30 µM
same,"Papp A→B at 1 h, 5 μM","[2]; Caco-2, Caco-2, 5 μM, A > B",18 ×10⁻⁶ cm/s
same,"recovery at 1 h, 5 μM","[2]; Caco-2, Caco-2, 5 μM, A > B",87%
same,"recovery at 1 h, 5 μM","[2]; Caco-2, Caco-2, 5 μM, B > A",96%
same,"efflux ratio at 1 h, 5 μM","[2]; Caco-2, 5 μM",1.9
same,"Papp B→A at 1 h, 5 μM","[2]; Caco-2, 5 μM, B > A",60.7 ×10⁻⁶ cm/s
same,Avg. Papp,Caco-2,32.6 ×10⁻⁶ cm/s
same,IC50,"[3]; THP-1, summary of cell assays, read-out: potency in PI3K-gamma associated cell assays",0.25 µM
same,IC50,"[3]; THP-1/MCP-1/pAkt, PI3K-gamma dependent, read-out: IC50 Average ± Standard Deviation",0.24 ± 0.07 µM
same,IC50,[4],0.57 µM
same,IC50,[5],0.22 µM
same,"reduction of arthritis scores AUC, prophylactic paws only",[6]; 2.5 mg/kg BID,42%
same,"reduction of clinical arthritis scores AUC vs vehicle, all paws",[6]; 2.5 mg/kg BID,28%
same,All Paw Score AUC,[6]; 2.5 mg/kg BID,*22.76
same,"Histopathology Summed Score, Knees",[6]; 2.5 mg/kg BID,6.83
same,"Histopathology Summed Score, Paws",[6]; 2.5 mg/kg BID,8.14
same,"Histopathology Summed Score, Six Joints",[6]; 2.5 mg/kg BID,7.70
same,Prophylactic Paw Score AUC,[6]; 2.5 mg/kg BID,*41.35
same,Therapeutic Paw Score AUC,[6]; 2.5 mg/kg BID,49.25
same,"clinical arthritis scores, prophylactic paws (FIG. 3)","[6]; 2.5 mg/kg BID, *d2, 4-11",significantly reduced
same,"Arthritis scores measured daily, all paws (FIG. 1)",[6]; 2.5 mg/kg BID,significantly reduced toward normal
same,"reduction of arthritis scores AUC, prophylactic paws only",[6]; 5 mg/kg BID,81%
same,"reduction of clinical arthritis scores AUC vs vehicle, all paws",[6]; 5 mg/kg BID,63%
same,All Paw Score AUC,[6]; 5 mg/kg BID,*11.84
same,"Histopathology Summed Score, Knees",[6]; 5 mg/kg BID,*2.53
same,"Histopathology Summed Score, Paws",[6]; 5 mg/kg BID,*3.64
same,"Histopathology Summed Score, Six Joints",[6]; 5 mg/kg BID,*3.27
same,Prophylactic Paw Score AUC,[6]; 5 mg/kg BID,*13.35
same,Therapeutic Paw Score AUC,[6]; 5 mg/kg BID,34.00
same,"clinical arthritis scores, prophylactic paws (FIG. 3)","[6]; 5 mg/kg BID, *d2-11",significantly reduced
same,"Arthritis scores measured daily, all paws (FIG. 1)",[6]; 5 mg/kg BID,significantly reduced toward normal
same,"clinical arthritis scores, therapeutic paws (FIG. 2)","[6]; 5 mg/kg BID, *d5-11",significantly reduced
same,"reduction of arthritis scores AUC, prophylactic paws only",[6]; 10 mg/kg BID,98%
same,"reduction of arthritis scores AUC, therapeutic paws only",[6]; 10 mg/kg BID,79%
same,"reduction of clinical arthritis scores AUC vs vehicle, all paws",[6]; 10 mg/kg BID,89%
same,All Paw Score AUC,[6]; 10 mg/kg BID,*3.34
same,"Histopathology Summed Score, Knees",[6]; 10 mg/kg BID,*0.68
same,"Histopathology Summed Score, Paws",[6]; 10 mg/kg BID,*0.79
same,"Histopathology Summed Score, Six Joints",[6]; 10 mg/kg BID,*0.75
same,Prophylactic Paw Score AUC,[6]; 10 mg/kg BID,*1.60
same,Therapeutic Paw Score AUC,[6]; 10 mg/kg BID,*11.75
same,"clinical arthritis scores, prophylactic paws (FIG. 3)","[6]; 10 mg/kg BID, *d2-11",significantly reduced
same,"clinical arthritis scores, therapeutic paws (FIG. 2)","[6]; 10 mg/kg BID, *d2-11",significantly reduced
same,"Arthritis scores measured daily, all paws (FIG. 1)",[6]; 10 mg/kg BID,significantly reduced toward normal
same,selectivity over PI3K-alpha/beta,HUVECs; HUVEC proliferation,> 74 fold
same,IC50,"HUVECs; 96 h, HUVEC Proliferation, 96 hours, PI3K-alpha/beta dependent, read-out: IC50 Avg +/− SD",> 19 µM
same,IC50,"HUVECs; footnote * of Table 4, no anchor in the table, read-out: Individual assay data (IC50)",> 20 µM
same,selectivity over PI3K-alpha and PI3K-beta in cell based assays,HUVECs; summary,40-80 fold
